What was measured:
LATS1/2 = biological target: T1, LATS1/2; assay: TR-FRET LanthaScreen binding assay; settings: LATS1 (aa 589-1130), LATS2 (aa 488-1080), kinase tracer 236
T1 construct: LATS1 (amino acids 589-1130; ThermoFisher, PV6363), LATS2 (amino acids 488-1080; fused on or other part: GST tag, inferred from the LanthaScreen Eu-anti-GST antibody and the ThermoFisher products
Procedure: IC50 scores were determined using a TR-FRET LanthaScreen binding assay using LATS1 (amino acids 589-1130; ThermoFisher, PV6363), LATS2 (amino acids 488-1080; ThermoFisher, PV6366); kinase tracer 236 (ThermoFisher, PV5592); LanthaScreen Eu-anti-GST (ThermoFisher, PV3189); 5× kinase buffer A (ThermoFisher, PV6135); low-volume 384-well plate format.

[1] = test system: YAP phosphorylation in PANC1 cells; assay: YAP phosphorylation in PDAC PANC1 cells (FIG. 1); format: cell-based; settings: 48 h; for overall YAP levels / p-YAP levels (YAP phosphorylation): 5 μM and 25 μM
Procedure: FIG. 1 is an image showing that the LATS1/2 inhibitors of the invention reduce YAP phosphorylation in PDAC PANC1 cells in a dose-dependent manner. FIG. 1 consists of two columns. On the left: the cells were treated with control and 5 μM of each of the compounds of the invention. Control in lane “C.” In lane “1” is 4-(6-(4-(2-morpholinoethoxy)phenyl)imidazo[1,2-b]pyridazin-3-yl)benzamide (compound 1). In lane “2” is 4-(6-(3-aminopiperidin-1-yl)imidazo[1,2-b]pyridazin-3-yl)benzamide (compound 3). In lane “4” is 4-(6-(4-aminopiperidin-1-yl)imidazo[1,2-b]pyridazin-3-yl)benzamide (compound 4). In lane “6” is 4-(6-(piperazin-1-yl)imidazo[1,2-b]pyridazin-3-yl)benzamide (compound 2). In lane “7” is 4-(4-(4-(4-chlorophenyl)piperidin-4-yl)phenyl)-3-methyl-1H-pyrazolo[4,3-c]pyridine (compound 5).
(§1) On the left: the cells were treated with control and 25 μM of each of the compounds of the invention. Control in lane “C.” In lane “1” is 4-(6-(4-(2-morpholinoethoxy)phenyl)imidazo[1,2-b]pyridazin-3-yl)benzamide (compound 1). In lane “2” is 4-(6-(3-aminopiperidin-1-yl)imidazo[1,2-b]pyridazin-3-yl)benzamide (compound 3). In lane “4” is 4-(6-(4-aminopiperidin-1-yl)imidazo[1,2-b]pyridazin-3-yl)benzamide (compound 4). In lane “6” is 4-(6-(piperazin-1-yl)imidazo[1,2-b]pyridazin-3-yl)benzamide (compound 2). In lane “7” is 4-(4-(4-(4-chlorophenyl)piperidin-4-yl)phenyl)-3-methyl-1H-pyrazolo[4,3-c]pyridine (Compound 5).
(§2) YAP is stained for Yes-associated protein; p-YAP is stained for phosphorylated Yes-associated protein; GAPDH is a standard protein loading control.

[2] = test system: ABCG2 transcription in PANC1 cells; assay: ABCG2 transcription in PDAC PANC1 cells (FIG. 2); format: cell-based; settings: 25 μM, 48-hour treatment
Procedure: FIG. 2 is an image showing that the LATS1/2 inhibitors of the invention reduce transcription of ABCG2, a critical multidrug efflux transporter, in PDAC PANC1 cells. The y-axis is the normalized transcription level of ABCG2. The bar labeled ABCG2_control represents PANC1 cells that received no treatment. The bar labeled ABCG2_201 represents PANC1 cells treated with 4-(6-(4-(2-morpholinoethoxy)phenyl)imidazo[1,2-b]pyridazin-3-yl)benzamide (compound 1) at 25 μM. The bar labeled ABCG2_206 represents cells treated with 4-(6-(piperazin-1-yl)imidazo[1,2-b]pyridazin-3-yl)benzamide (compound 2) 25 μM.

PANC1 cells = assay: Killing of PANC1 cells observed in the FIG. 1 experiment; format: cell-based; settings: higher dose (25 μM)
Procedure: as §1, §2

IC50 (LATS1/2) [nM] | Structure (SMILES) | overall YAP levels [1] | p-YAP levels (YAP phosphorylation) [1] | ABCG2 transcription levels [2] | p-YAP levels at the lower dose ([1]; lower dose (5 μM)) | killing of PANC1 cells at the higher dose (PANC1 cells)
0.1 to 50 | NC(=O)c1ccc(-c2cnc3ccc(N4CCNCC4)nn23)cc1 [Compound 2, 4-(6-(piperazin-1-yl)imidazo[1,2-b]pyridazin-3-yl)benzamide] | without impacting overall YAP levels | reduce p-YAP levels | reduce ABCG2 transcription levels |  | 
0.1 to 50 | NC(=O)c1ccc(-c2cnc3ccc(N4CCCC(N)C4)nn23)cc1 (stereo not shown) [Compound 3, 4-(6-(3-Aminopiperidin-1-yl)imidazo[1,2-b]pyridazin-3-yl)benzamide] |  |  |  |  | 
0.1 to 50 | NC(=O)c1ccc(-c2cnc3ccc(N4CCC(N)CC4)nn23)cc1 [Compound 4, 4-(6-(4-Aminopiperidin-1-yl)imidazo[1,2-b]pyridazin-3-yl)benzamide] |  |  |  |  | 
0.1 to 50 | Cc1n[nH]c2ccnc(-c3ccc(C4(c5ccc(Cl)cc5)CCNCC4)cc3)c12 [Compound 5, 4-(4-(4-(4-chlorophenyl)piperidin-4-yl)phenyl)-3-methyl-1H-pyrazolo[4,3-c]pyridine] |  |  |  | reduced p-YAP levels | killed all PANC1 cells

Structure (SMILES) | IC50 (LATS1/2) [nM] | overall YAP levels [1] | p-YAP levels (YAP phosphorylation) [1] | ABCG2 transcription levels [2] | p-YAP levels at the lower dose ([1]; lower dose (5 μM)) | killing of PANC1 cells at the higher dose (PANC1 cells)
NC(=O)c1ccc(-c2cnc3ccc(-c4ccc(OCCN5CCOCC5)cc4)nn23)cc1 [Compound 1, 4-(6-(4-(2-Morpholinoethoxy)phenyl)imidazo[1,2-b]pyridazin-3-yl)benzamide] | 10 to 1000 | without impacting overall YAP levels | reduce p-YAP levels | reduce ABCG2 transcription levels |  | 
